In publication PMC6984391, “Anion carriers as potential treatments for cystic fibrosis: transport in cystic fibrosis cells, and additivity to channel-targeting drugs” (Chemical Science, 2019):
Where two headings read alike, the source gives them in different places.

What was measured:
[1] = set-up: method as in PMID 22461434, PMID 21846096, PMID 29786913; conditions: mol% carrier to lipid for 50% Cl^– efflux in 270 s; 490 mM NaCl inside, 490 mM NaNO3 outside; ref [22], [16 and 25]; cited from earlier work
YFP-FRT cells = assay: YFP fluorescence plate reader assay of anion transport in YFP-FRT cells; format: cell-based, Fischer rat; conditions: for Corrected absolute initial slope |dF/dT|: transporter 50 μM, DMSO 0.5% v/v, DMSO-only subtracted, I^– 100 mM; for anion transport activity in YFP-FRT cells (in words): 50 μM
Method: We treated YFP-FRT cells with anionophores (final concentration, 1–50 μM) or the vehicle DMSO (0.1–0.5% v/v) by direct addition to the phosphate-buffered saline (PBS) bathing the cells. After incubating YFP-FRT cells with anionophores for 10 minutes at 37 °C, we evaluated anion transport activity by adding I^– (100 mM), using a PBS iodide solution with Cl^– replaced by I^–, and following cell fluorescence for 14 s. FRT cells are relatively impermeable to anions because they lack key ion channels found in epithelial cells, including CFTR.[33] Thus, in the absence of anionophore, iodide cannot enter YFP-FRT cells and no quenching of fluorescence occurs. By contrast, in the presence of an anionophore, iodide influx occurs leading to fluorescence quenching.[29]
To quantify anion transport by different anionophores, we fitted first order exponential functions to the iodide-induced fluorescence decay to measure the initial slope, averaging values over multiple experiments. Fig. 2b and Table 1 summarise the data. Consistent with our previous results,[29] we observed a wide range of anion transport activity. […] We therefore selected for further study 11, 12, 15 and 19.
FRT cells stably expressing the halide sensor YFP-H148Q/I152L6 were generous gifts of AS Verkman (University of California, San Francisco), while CFBE41o- cells7 stably expressing YFP (YFP-CFBE cells) were a generous gift of LJV Galietta (Telethon Institute for […]
Genetics and Medicine). […]
U ml-1 penicillin and […] streptomycin. All cells were incubated at 37 °C in a humidified atmosphere with 5% CO2. […]
Fluorescence plate reader assay […]
quenching of YFP fluorescence at 37 °C using a microplate reader following the method of Galietta et al..9 The microplate reader (model: FLUORstar Omega; BMG LABTECH Ltd., Aylesbury, UK) was equipped with a syringe pump and excitation (500 ± 10 nm) and emission (535 ± 15 nm) filters (Chroma Technology GmbH, Olching, Germany). After washing cells twice with PBS (composition (mM): 137 NaCl, 2.7 KCl, 8.1 Na2HPO4, 1.5 KH2PO4, 1 CaCl2 and 0.5 MgCl2, pH 7.40), cells were incubated with test anionophores (1 – 50 µM) or the vehicle (DMSO [0.1 – 0.5% v v-1]) in 40 µl of PBS for 10 – 120 minutes according to the experimental design. Other compounds, including forskolin, ivacaftor and channel inhibitors were added to […]
the PBS bathing cells 10 minutes prior to PBS iodide addition, whereas UTP was added to cells with the PBS iodide solution. Fluorescence was measured for 14 seconds; 2 seconds before and 12 seconds after injection of 110 µl PBS iodide solution (137 mM Cl- replaced by I-) into each well (to obtain a final concentration of I- of 100 mM).
We expressed cell fluorescence values (F) relative to the fluorescence value immediately before I- injection (F0), excluding the initial decrease, which likely represents the quenching of extracellular YFP released from cells and signal reduction accompanying the increase in solution volume bathing cells. To quantify anion transport by test anionophores, we determined the initial slope of the fluorescence decay following I - addition by fitting first order exponential functions to the last 12 seconds of each fluorescence recording. In each experim ent, n values represent the mean of two replicates and all treatments were tested at least three times using different microplates. […]
FRT cells was selected and the cells were perfused with (i) PBS for 5 minutes then (ii) PBS containing I- (10 mM) (made by preparing PBS with 127 mM NaCl to maintain osmolarity) for 5 minutes and finally (iii) PBS for 30 minutes to remove thoroughly I- from the perfusion chamber. YFP-FRT cells were repeatedly treated with I- (10 mM) and then washed with PBS […]
During all interventions, the rate of solution perfusion was 8 – 10 ml min-1; temperature was 37 °C and except for the first

[2] = set-up: method as in ref [16 and 25], [20], [21], [22], [23], [24], [29] (Reference column); conditions: 1H NMR titrations with Bu4N^+Cl^– in DMSO-d6/H2O (200 : 1) at 298 K; ref [16 and 25], [20], [21], [22], [23], [24], [29]; cited from earlier work
[3] = set-up: method as in ref [20], [21], [23], [24], [29] (Reference column); conditions: transporter preincorporated in LUVs (70% POPC + 30% cholesterol), 25 mM NaCl gradient, 225 mM NaNO3; ref [20], [21], [23], [24], [29]; cited from earlier work
[4] = Affinity to Cl- in chloroform by extraction of Et4N+Cl- from water; format: binding; conditions: extraction of Et4N^+Cl^– from water into chloroform at 303 K; new compound or new data
Method: Measurement of affinities to Et4N+Cl- in chloroform through extraction from […]
This method is adapted from Clare et al..4 The Et4N+Cl- salt was obtained from Sigma Aldrich and dried under vacuum overnight prior to solution preparation using deionised water that had been passed through a Millipore filtration system. All host solutions were prepared using chloroform that had been deacidified by passage through a flash chromatography column containing basic alumina.
A solution of host in deacidified chloroform was combined with 10 mL of aqueous Et4N+Cl-guest solution in a sample tube (30 mL). Concentrations and volumes are specified in Table
S1. A magnetic stirring bar (2 cm) was added to the tube and the lower half was immersed in a water bath heated to 303 K, while the contents were stirred vigorously to achieve good mixing of the two phases. After 30 minutes, stirring was stopped and the two phases were allowed to separate. The majority of the aqueous phase was then removed using a pipette and the remaining organic phase was centrifuged for 10 minutes at 4000 rpm. The chloroform solution was then filtered through Whatman 1PS hydrophobic filter paper to remove any remaining aqueous phase. Solvent from the filtrate was then removed in vacuo and the solid was further dried under vacuum. The resulting solids from the extraction experiments were dissolved in acetone-d6 and the solutions were analysed with 1H NMR spectroscopy.
A value for the molar ratio (R) was determined by integrating the signal at δ = 3.5 ppm (CH2 of Et4N+Cl-) against one of the receptor signals.
The values for R obtained from the 1H NMR spectra were used to calculate values for the equilibrium extraction constants Ke:
Horg + Xaq− + Yaq+ ⇌HX−Yorg+ Ke = org […]
To convert the extraction constants Ke into association constants Ka it is necessary to obtain the distribution constants Kd for the substrates between aqueous and organic phases:
The Kd value for tetraethylammonium chloride partitioning between water and chloroform has been determined and reported previously to be 1.269 × 10-5 M-1.5
The binding constant Ka is then calculated from Ke and Kd:
H + X−Y+ ⇌ HX−Y+ K = org = e […]
When [G] > 100 mM, the amount of salt that migrates from the aqueous phase into the organic phase without assistance of the host has to be taken into account by correcting the measured […]
Table S1. Overview of the conditions and results from the extraction experiments Receptor [H] (mM) [G] (mM) Vorg (mL) Vaq (mL) Rmeasured Ka (M-1)

[5] = Cl-/NO3- exchange in LUVs with preincorporated anionophore (lucigenin method); format: biochemical; conditions: transporter preincorporated in LUVs (70% POPC + 30% cholesterol), 25 mM NaCl gradient, 225 mM NaNO3; new compound or new data
Method: The four new anionophores were tested for affinity to Cl^– (in CHCl3 and DMSO, with tetra-alkylammonium counter-ions), and for anion transport (Cl^–/NO3^– exchange) when preloaded into 200 nm large unilamellar vesicles (LUVs). The latter assay was performed using the well-established “lucigenin method”[30] in which Cl^– influx into vesicles is followed through quenching of fluorescence from the halide-sensitive fluorophore lucigenin. The results are listed in Table 1, accompanied by corresponding values for the previously-reported compounds where available. […] In this test, anion transport by anionophores delivered externally to LUVs is compared with their action when preloaded into LUV membranes.[24],[29],[32]
3. Transport studies in vesicles
Transport measurements in vesicles with preincorporated anionophores.
1-Palmitoyl-2-oleoyl-sn-glycero-3-phosphocholine (POPC) was obtained from Avanti® Polar Lipids, Inc. An extrusion apparatus and 200 nm polycarbonate membranes were obtained from GC Technology Ltd. All lipid and receptor solutions were prepared using chloroform that had been deacidified by passage through a flash chromatography column containing basic alumina, and all aqueous solutions were prepared using deionised water that had been passed through a Millipore filtration system.
POPC and cholesterol solutions (~10 mM) in deacidified chloroform were combined with a solution of transporter in methanol or deacidified chloroform in a 5 mL round bottomed flask.
Volumes of the aliquots were calculated from the concentrations of the lipid solution to obtain a POPC to cholesterol ratio of 7:3 (for instance by combining 4.20 µmol POPC and 1.80 µmol cholesterol). The ratio of anionophore to lipid (POPC + cholesterol) was either 1:2500 or 1:25000, as specified in the experiments. The solvents from the lipid/receptor mixture were evaporated under a stream of N2 and the lipid film was dried under high vacuum for 1 h. The residue was hydrated with 500 µL of an aqueous solution of 10,10'-dimethyl-9,9'-biacridinium nitrate (lucigenin, 0.8 mM) and NaNO3 (225 mM), sonicated for 30 s and stirred for 1 h to give heterogeneous vesicles. Multilamellar vesicles were disrupted by 10 freeze-thaw cycles and then the solution was diluted to 1 mL (by adding 0.5 mL of 225 mM NaNO3) and carefully extruded (29 times) through a polycarbonate membrane (200 nm pore size) to give a uniform distribution of LUVs with an average diameter of ~200 nm.2 The external lucigenin was removed by passing the solution though a size exclusion column (containing ~2 g Sephadex 50G, eluted with 225 mM NaNO3). The collected vesicles were further diluted with NaNO3 solution (225 mM) to obtain a vesicle solution with 0.4 mM lipid concentration. 3.00 mL of this vesicle solution was placed in a quartz cuvette with a small stir bar and the fluorescence intensity (excitation at 450 nm, emission at 535 nm) was measured over time at 25 °C, using a PerkinElmer LS45 fluorescence spectrometer. 75 µL of aqueous NaCl (1.0 M in 225 mM NaNO3, to give an overall external chloride concentration of 25 mM) was added ~30 seconds after the start of the experiment and the fluorescence intensity was measured for another 14 […]
Fluorescence data were collected for at least four replicate experiments. The plateau (before addition of chloride) and the vertical drop (the first 1-2.5 seconds after chloride addition, due to quenching of external lucigenin) were removed. Next the data were normalized: all fluorescence values (F) were divided by the fluorescence value before addition of chloride (F0).
Initial rates (I) were obtained from fluorescence -decay curves (0-500 s) by fitting their inverse (F0/F) to a double exponential decay function:
Differentiating this gives F = abe−bt + cde−dt […]
and substituting t = 0 gives the following equation for initial rate: I = ab + cd Specific initial rates [I] were obtained by dividing the initial rates by the anionophore to lipid […]

Compound	EC50, 270 s [1]	Corrected absolute initial slope |dF/dT| (YFP-FRT cells)	K a to Cl^– in DMSO [2]	Specific initial rate [I] [3]	K a to Cl^– in CHCl3 [4]	anion transport activity in YFP-FRT cells (in words) (YFP-FRT cells)	Specific initial rate [I] [5]
O=c1c(Nc2ccccc2)c(Nc2ccccc2)c1=O [Compound 1]	1.38 mol%	0 ×10^–3 s^–1	2.6 × 10^2 M^–1	–	–	–	–
O=C(Nc1ccc(C(F)(F)F)cc1)Nc1cccc2cc3cccc(NC(=O)Nc4ccc(C(F)(F)F)cc4)c3cc12 [Compound 21]	–	1.7 ×10^–3 s^–1	2.2 × 10^3 M^–1	1200 s^–1	–	–	–
S=C(NCCN(CCNC(=S)Nc1ccccc1)CCNC(=S)Nc1ccccc1)Nc1ccccc1 [Compound 17]	0.31 mol%	0.5 ×10^–3 s^–1	1.8 × 10^3 M^–1	–	5.2 × 10^5 ^b M^–1	–	–
O=C(Nc1cc(C(F)(F)F)cc(C(F)(F)F)c1)Nc1cccc2cc3cccc(NC(=O)Nc4cc(C(F)(F)F)cc(C(F)(F)F)c4)c3cc12 [Compound 22]	–	9.0 ×10^–3 s^–1	3.0 × 10^3 M^–1	1900 s^–1	–	intermediate levels	–
O=c1c(Nc2ccc(C(F)(F)F)cc2)c(Nc2ccc(C(F)(F)F)cc2)c1=O [Compound 2]	0.06 mol%	0.3 ×10^–3 s^–1	4.6 × 10^2 M^–1	–	–	–	–
O=C(Nc1ccc([N+](=O)[O-])cc1)Nc1cccc2cc3cccc(NC(=O)Nc4ccc([N+](=O)[O-])cc4)c3cc12 [Compound 20]	–	8.4 ×10^–3 s^–1	2.6 × 10^3 M^–1	2100 s^–1	–	intermediate levels	–
CCc1c(CNC(=S)Nc2ccc([N+](=O)[O-])cc2)c(CC)c(CNC(=S)Nc2ccc([N+](=O)[O-])cc2)c(CC)c1CNC(=S)Nc1ccc([N+](=O)[O-])cc1 [Compound 4]	–	0.2 ×10^–3 s^–1	3.8 × 10^2 M^–1	5 s^–1	–	–	–
CCc1c(CNC(=O)Nc2cc(C(F)(F)F)cc(C(F)(F)F)c2)c(CC)c(CNC(=O)Nc2cc(C(F)(F)F)cc(C(F)(F)F)c2)c(CC)c1CNC(=O)Nc1cc(C(F)(F)F)cc(C(F)(F)F)c1 [Compound 7]	–	0.2 ×10^–3 s^–1	3.9 × 10^2 M^–1	50 s^–1	–	–	–
O=c1c(Nc2cc(C(F)(F)F)cc(C(F)(F)F)c2)c(Nc2cc(C(F)(F)F)cc(C(F)(F)F)c2)c1=O [Compound 3]	0.01 mol%	0 ×10^–3 s^–1	6.4 × 10^2 M^–1	–	–	–	75 ^b s^–1
